Data from publication PMC12164754, “Phosphoglycerate dehydrogenase is required for kernel development and defines a predominant serine synthesis pathway in maize” (The Plant Cell, 2025).

Key:
[1] = target: T1, DEK20 (phosphoglycerate dehydrogenase1, PGDH1) (Zea mays, UniProt A0A1D6DW07); test: microscale thermophoresis (MST); assay type: binding
T1 construct: gene LOC103645840; recombinant His-DEK20
T1 sequence (A0A1D6DW07 1-387): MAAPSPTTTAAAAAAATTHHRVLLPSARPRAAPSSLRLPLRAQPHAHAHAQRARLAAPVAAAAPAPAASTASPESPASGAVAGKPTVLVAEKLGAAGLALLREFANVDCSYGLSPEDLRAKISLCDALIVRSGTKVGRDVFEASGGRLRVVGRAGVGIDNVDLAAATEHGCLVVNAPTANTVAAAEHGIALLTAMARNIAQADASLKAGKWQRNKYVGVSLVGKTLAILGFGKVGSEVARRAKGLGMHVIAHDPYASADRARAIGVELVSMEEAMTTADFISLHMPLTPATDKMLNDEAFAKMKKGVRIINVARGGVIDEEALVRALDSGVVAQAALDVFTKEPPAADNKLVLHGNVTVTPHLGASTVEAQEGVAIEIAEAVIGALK

[2] = target: T2, DEK20 (phosphoglycerate dehydrogenase1, PGDH1) (Zea mays, UniProt A0A1D6DW07, S282L); test: microscale thermophoresis (MST); assay type: binding
T2 construct: gene LOC103645840; recombinant His-DEK20

[3] = target: DEK20^WT (truncated DEK20, residues 1-387, substrate binding domain and nucleotide-binding domain) (maize (Zea mays)); test: crystal structure; apo form, 3.5 Å; about 16 mg/ml DEK20^WT crystallised in sodium nitrate, sodium phosphate dibasic, ammonium sulfate, HEPES/MOPS pH 7.5, glycerol, PEG 4000; solved by molecular replacement

T2 sequence (A0A1D6DW07 entry or part of it S282L): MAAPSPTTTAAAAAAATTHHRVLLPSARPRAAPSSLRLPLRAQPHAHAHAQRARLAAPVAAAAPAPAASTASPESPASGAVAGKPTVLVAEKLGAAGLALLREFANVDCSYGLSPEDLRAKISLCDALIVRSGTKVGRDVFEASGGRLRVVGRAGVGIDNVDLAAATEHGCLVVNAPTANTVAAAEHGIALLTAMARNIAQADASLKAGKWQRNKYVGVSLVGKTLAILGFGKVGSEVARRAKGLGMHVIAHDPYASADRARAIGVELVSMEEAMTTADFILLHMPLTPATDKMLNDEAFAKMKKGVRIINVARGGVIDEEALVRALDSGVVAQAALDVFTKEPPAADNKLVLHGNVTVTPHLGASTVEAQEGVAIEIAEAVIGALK

Molecule | Kd [1] | Kd [2] | stoichiometry N [3]
NC(=O)c1ccc[n+]([C@@H]2O[C@H](COP(=O)([O-])OP(=O)(O)OC[C@H]3O[C@@H](n4cnc5c(N)ncnc54)[C@H](O)[C@@H]3O)[C@@H](O)[C@H]2O)c1 [NAD^+] | 32.4 µM | 8.11 µM | –
DEK20^WT (truncated DEK20, residues 1-387, substrate binding domain and nucleotide-binding domain) (domain or fragment) | – | – | 2
